{"source": "patent US10376484B2", "about": "“Combination of bezafibrate and of resveratrol or resveratrol derivatives for the treatment and prevention of diseases involving a mitochondrial energy dysfunction” (priority 2013, dated 2019)", "type_in_all_cases": "cell-based, human", "key": {"[1]": {"test_system": "fibroblasts of patients suffering from moderate CPT2 deficiency", "experiment": "Tritiated palmitate β-oxidation (FAO) in fibroblasts after 48 h treatment, CPT2 deficiency", "settings": "for % increase in fatty acid oxidation (FAO): 48 h, vs carrier", "description": "(§1) Cellular palmitate β-oxidation activity can be measured with any suitable technology known to persons skilled in the art. That can in particular be achieved by using tritiated palmitate complexed with BSA (bovine albumin serum), which is added to the cells to be tested. After incubation, the addition of trichloroacetic acid (TCA) in a supernatant sample makes it possible to precipitate unmetabolized complexes (BSA/tritiated palmitate), which are excluded by centrifugation. The measurement of tritium present in the supernatant after centrifugation and exclusion of unmetabolized complexes (BSA/tritiated palmitate) makes it possible to determine the amount of palmitate metabolized by the cells. A precise example of a protocol for implementing this process for measuring palmitate β-oxidation activity is described in Example 1. The fibroblasts are grown at 37° C. in complete Ham's F10 medium, i.e., supplemented with 12% fetal calf serum, 100 U/ml penicillin, and 0.1 mg/ml streptomycin, at a concentration of 70,000 cells per ml and per well in 24-well culture dishes. Twenty-four hours after seeding, stock solutions of RSV (0.2 M) and of BZ (0.4 M) are prepared in DMSO in order to prepare the various cell treatment media. For the treatment, the culture medium is discarded and replaced with 1 ml of complete Ham's F10 medium supplemented with one of the molecules of interest at one of the following concentrations, 75 μM RSV, or 400 μM BZ, or 20 μM RSV, or 30 μM RSV, […], […], or the culture medium is discarded and replaced with 1 ml of complete Ham's F10 medium supplemented with a combination of the two molecules of interest at the following concentrations: ([…]), or ([…]). Additional wells receive 1 ml of complete medium supplemented with the diluent of the molecules of interest only (<0.05% DMSO). Each of these treatment conditions is applied in triplicate (3 wells) for each patient, in each experiment. The 24-well dishes are then incubated at 37° C. for 48 hours. Thus, the cells of each individual studied are treated in all of the conditions listed, in parallel, for 48 hours, before the measurement of palmitate β-oxidation. The fatty acid used is palmitate labeled with tritium at positions 9 and 10 (^3H-Pal). A stock solution is prepared beforehand by mixing 100 μl of ^3H-Pal, 130 μl of 50 mM “cold” palmitate and 13 ml of 25 mg/ml BSA solution. A ^3H-Pal/BSA (bovine serum albumin) complex ensuring good palmitate solubilization is thus obtained (final palmitate concentration: 500 μM). The test of ^3H-palmitate oxidation is carried out on fibroblasts seeded in a 24-well plate. The culture medium is first discarded and the wells are rinsed three times with PBS. A 125 μM ^3H-Pal working solution is prepared, from the 500 μM stock solution, in PBS with Ca/Mg, supplemented with 1 mM carnitine. 200 μl of t[…]-Pal solution is introduced into each well and the plates are incubated at 37° C. for 2 hours. During this time, three counting vials are prepared for the measurement of specific radioactivity (RDA, in CPM/nmol of fatty acids) of the reaction medium. These vials contain 5 ml of scintillation fluid, 1.5 ml of distilled water, and 20 μl of ^3H-Pal/BSA solution. The scintillation fluid converts the radioactive energy of ^3H into light energy, which thus makes it possible to measure radioactivity, expressed in counts per minute (CPM), using a liquid scintillation counter. At the end of 2 hours of incubation, 200 μl is taken from each well and mixed with 200 μl of 10% trichloroacetic acid (TCA). This strong acid ensures the precipitation of unmetabolized BSA/AG complex. The tubes are then centrifuged at 3300 rpm for 10 minutes at 4° C. After centrifugation, 350 μl of supernatant is taken and mixed with […] of 6 M NaOH in order to neutralize the pH. The total volume, or 450 μl, is transferred to an ion-exchange resin column which retains the tritiated water. These columns are then transferred to scintillation vials. […]"}, "[2]": {"test_system": "fibroblasts of patients suffering from moderate VLCAD deficiency", "experiment": "Tritiated palmitate β-oxidation (FAO) in fibroblasts after 48 h treatment, VLCAD deficiency", "settings": "for % increase in fatty acid oxidation (FAO): 48 h, vs carrier", "description": "as §1"}, "[3]": {"test_system": "fibroblasts of patients suffering from moderate β-oxidation deficiency", "experiment": "Palmitate β-oxidation, correction of deficiency, pooled statements over deficiency types", "settings": "for reduction in dose by a factor, combination vs compound alone: 30 μM RSV + 35 μM BZ vs 75 μM RSV / 400 μM BZ; for reduction in dose by a factor, combination vs compound alone / concentration at which the compound alone corrects the deficiency: VLCAD and CPT2 deficiency; for concentration at which the compound alone corrects the deficiency: compound used alone; for factor by which combining the two molecules decreases the dose needed to correct the deficiency: conclusion over three types of moderate β-oxidation enzyme deficiencies", "description": "The fibroblasts are grown at 37° C. in complete Ham's F10 medium, i.e., supplemented with 12% fetal calf serum, 100 U/ml penicillin, and 0.1 mg/ml streptomycin, at a concentration of 70,000 cells per ml and per well in 24-well culture dishes. Twenty-four hours after seeding, stock solutions of RSV (0.2 M) and of BZ (0.4 M) are prepared in DMSO in order to prepare the various cell treatment media. For the treatment, the culture medium is discarded and replaced with 1 ml of complete Ham's F10 medium supplemented with one of the molecules of interest at one of the following concentrations, 75 μM RSV, or 400 μM BZ, or 20 μM RSV, or 30 μM RSV, or 25 μM RSV, or 35 μM RSV, or the culture medium is discarded and replaced with 1 ml of complete Ham's F10 medium supplemented with a combination of the two molecules of interest at the following concentrations: (20 μM RSV+[…]), or (30 μM RSV+[…]). Additional wells receive 1 ml of complete medium supplemented with the diluent of the molecules of interest only (<0.05% DMSO). Each of these treatment conditions is applied in triplicate (3 wells) for each patient, in each experiment. The 24-well dishes are then incubated at 37° C. for 48 hours. Thus, the cells of each individual studied are treated in all of the conditions listed, in parallel, for 48 hours, before the measurement of palmitate β-oxidation. The fatty acid used is palmitate labeled with tritium at positions 9 and 10 (^3H-Pal). A stock solution is prepared beforehand by mixing 100 μl of ^3H-Pal, 130 μl of 50 mM “cold” palmitate and 13 ml of 25 mg/ml BSA solution. A ^3H-Pal/BSA (bovine serum albumin) complex ensuring good palmitate solubilization is thus obtained (final palmitate concentration: 500 μM). The test of ^3H-palmitate oxidation is carried out on fibroblasts seeded in a 24-well plate. The culture medium is first discarded and the wells are rinsed three times with PBS. A 125 μM ^3H-Pal working solution is prepared, from the 500 μM stock solution, in PBS with Ca/Mg, supplemented with 1 mM carnitine. 200 μl of t[…]-Pal solution is introduced into each well and the plates are incubated at 37° C. for 2 hours. During this time, three counting vials are prepared for the measurement of specific radioactivity (RDA, in CPM/nmol of fatty acids) of the reaction medium. These vials contain 5 ml of scintillation fluid, 1.5 ml of distilled water, and 20 μl of ^3H-Pal/BSA solution. The scintillation fluid converts the radioactive energy of ^3H into light energy, which thus makes it possible to measure radioactivity, expressed in counts per minute (CPM), using a liquid scintillation counter. At the end of 2 hours of incubation, 200 μl is taken from each well and mixed with 200 μl of 10% trichloroacetic acid (TCA). This strong acid ensures the precipitation of unmetabolized BSA/AG complex. The tubes are then centrifuged at 3300 rpm for 10 minutes at 4° C. After centrifugation, 350 μl of supernatant is taken and mixed with […] of 6 M NaOH in order to neutralize the pH. The total volume, or 450 μl, is transferred to an ion-exchange resin column which retains the tritiated water. These columns are then transferred to scintillation vials. The tritiated water is then eluted with 1.7 ml of distilled water. 5 ml of scintillation fluid is added to the tritiated water and the vials are placed in the liquid scintillation counter."}}}
{"smiles": "CC(C)(Oc1ccc(CCNC(=O)c2ccc(Cl)cc2)cc1)C(=O)O", "note": "[BZ, 2-(4-(2-((4-chlorobenzoyl)amino)ethyl)phenoxy)-2-methylpropanoic acid]", "values": [{"measurement": "% increase in fatty acid oxidation (FAO)", "setting": "[1]; patient DIA Ke, 400 μM BZ alone", "value": 62, "unit": "%"}, {"measurement": "% increase in fatty acid oxidation (FAO), Measured", "setting": "[1]; patient DIA Ke, Condition 1, 25 μM BZ alone", "value": 0, "unit": "%"}, {"measurement": "% increase in fatty acid oxidation (FAO), Measured", "setting": "[1]; patient DIA Ke, Condition 2, 35 μM BZ alone", "value": 6, "unit": "%"}, {"measurement": "% increase in fatty acid oxidation (FAO)", "setting": "[1]; patient alpha, 400 μM BZ alone", "value": 88, "unit": "%"}, {"measurement": "% increase in fatty acid oxidation (FAO), Measured", "setting": "[1]; patient alpha, Condition 1, 25 μM BZ alone", "value": 0, "unit": "%"}, {"measurement": "% increase in fatty acid oxidation (FAO), Measured", "setting": "[1]; patient alpha, Condition 2, 35 μM BZ alone", "value": 6, "unit": "%"}, {"measurement": "% increase in fatty acid oxidation (FAO)", "setting": "[2]; patient E3536, 400 μM BZ alone", "value": 128, "unit": "%"}, {"measurement": "% increase in fatty acid oxidation (FAO), Measured", "setting": "[2]; patient E3536, Condition 1, 25 μM BZ alone", "value": 7, "unit": "%"}, {"measurement": "% increase in fatty acid oxidation (FAO), Measured", "setting": "[2]; patient E3536, Condition 2, 35 μM BZ alone", "value": 20, "unit": "%"}, {"measurement": "% increase in fatty acid oxidation (FAO)", "setting": "[2]; patient beta, 400 μM BZ alone", "value": 83, "unit": "%"}, {"measurement": "% increase in fatty acid oxidation (FAO), Measured", "setting": "[2]; patient beta, Condition 1, 25 μM BZ alone", "value": 1, "unit": "%"}, {"measurement": "% increase in fatty acid oxidation (FAO), Measured", "setting": "[2]; patient beta, Condition 2, 35 μM BZ alone", "value": 8, "unit": "%"}, {"measurement": "reduction in dose by a factor, combination vs compound alone", "setting": "[3]", "value": 11.4}, {"measurement": "concentration at which the compound alone corrects the deficiency", "setting": "[3]", "value": 400, "unit": "µM"}, {"measurement": "factor by which combining the two molecules decreases the dose needed to correct the deficiency", "setting": "[3]", "value": 10}]}
{"smiles": "Oc1ccc(/C=C/c2cc(O)cc(O)c2)cc1", "note": "[RSV, 5-[(E)-2-(4-hydroxyphenyl)-ethenyl]benzene-1,3-diol]", "values": [{"measurement": "% increase in fatty acid oxidation (FAO)", "setting": "[1]; patient DIA Ke, 75 μM RSV alone", "value": 44, "unit": "%"}, {"measurement": "% increase in fatty acid oxidation (FAO), Measured", "setting": "[1]; patient DIA Ke, Condition 1, 20 μM RSV alone", "value": 49, "unit": "%"}, {"measurement": "% increase in fatty acid oxidation (FAO), Measured", "setting": "[1]; patient DIA Ke, Condition 2, 30 μM RSV alone", "value": 66, "unit": "%"}, {"measurement": "% increase in fatty acid oxidation (FAO)", "setting": "[1]; patient alpha, 75 μM RSV alone", "value": 100, "unit": "%"}, {"measurement": "% increase in fatty acid oxidation (FAO), Measured", "setting": "[1]; patient alpha, Condition 1, 20 μM RSV alone", "value": 39, "unit": "%"}, {"measurement": "% increase in fatty acid oxidation (FAO), Measured", "setting": "[1]; patient alpha, Condition 2, 30 μM RSV alone", "value": 48, "unit": "%"}, {"measurement": "% increase in fatty acid oxidation (FAO)", "setting": "[2]; patient E3536, 75 μM RSV alone", "value": 145, "unit": "%"}, {"measurement": "% increase in fatty acid oxidation (FAO), Measured", "setting": "[2]; patient E3536, Condition 1, 20 μM RSV alone", "value": 81, "unit": "%"}, {"measurement": "% increase in fatty acid oxidation (FAO), Measured", "setting": "[2]; patient E3536, Condition 2, 30 μM RSV alone", "value": 106, "unit": "%"}, {"measurement": "% increase in fatty acid oxidation (FAO)", "setting": "[2]; patient beta, 75 μM RSV alone", "value": 67, "unit": "%"}, {"measurement": "% increase in fatty acid oxidation (FAO), Measured", "setting": "[2]; patient beta, Condition 1, 20 μM RSV alone", "value": 22, "unit": "%"}, {"measurement": "% increase in fatty acid oxidation (FAO), Measured", "setting": "[2]; patient beta, Condition 2, 30 μM RSV alone", "value": 43, "unit": "%"}, {"measurement": "reduction in dose by a factor, combination vs compound alone", "setting": "[3]", "value": 2.5}, {"measurement": "concentration at which the compound alone corrects the deficiency", "setting": "[3]", "value": 75, "unit": "µM"}, {"measurement": "factor by which combining the two molecules decreases the dose needed to correct the deficiency", "setting": "[3]", "value": 2}]}
